Experimental data: patent US5786447A, “Opioid peptide analogs” (Astra AB, priority 1994, dated 1998)
Positions of bridges follow the written chain, without caps; N, C: chain ends. Non-standard residues stand in square brackets, D forms with d. Residues, ends and D or L forms follow the SMILES beside them. 2Nal = N[C@@H](Cc1ccc2ccccc2c1)C(=O)O; Dmt = Cc1cc(O)cc(C)c1C[C@H](N)C(=O)O; dOrn = NCCC[C@@H](N)C(=O)O; NMeAib = CNC(C)(C)C(=O)O; Sar = CNCC(=O)O

Key:
μ opioid receptors = μ opioid receptors (Cavia porcellus, UniProt P97266); assay: GPI assay: inhibition of electrically evoked contractions of the guinea pig ileum; format: cell-based; details: means of 3-6 determinations ± SEM, normalized to [Leu5]enkephalin standard, read-out: IC50 in the GPI assay (agonist potency)
Experimental: (§1) a) Bioassays based on inhibition of electrically evoked contractions of the mouse vas deferens (MVD) and of the guinea pig ileum (GPI). In the GPI assay the opioid effect is primarily mediated by μ opioid receptors, whereas in the MVD assay the inhibition of the contractions is mostly due to interaction with δ opioid receptors.
(§2) The GPI and MVD bioassays were carried out as reported in P. W. Schiller et al., Biochem. Biophys. Res. Commun 85, 1332-1338 (1978) and J. Di Maio et al., J. Med. Chem. 25, 1432-1438 (1982). A log dose-response curve was determined with [Leu^5 ] enkephalin as standard for each ileum and vas preparation, and IC50 values of the compounds being tested were normalized according to A. A. Waterfield et al., Eur. J. Pharmacol. 58, 11-18 (1979). Ke values for the cyclic β-casomorphin analogs with mixed μ agonist/δ antagonist properties (δ antagonist effect) were determined from the ratio of IC50 values (DR) obtained in the presence and absence of a fixed antagonist concentration (a) (Ke =a/(DR-1)) H. W. Kosterlitz & A. J. Watt, Br. J. Pharmacol. 33, 266-276 (1968). These determinations were made with the MVD assay, using three different δ-selective agonists ([Leu^5 ]enkephalin, DPDPE and [D-Ala^2]deltorphin I].

δ opioid receptors = molecular target: T1, δ opioid receptors (Mus musculus, UniProt P32300); assay: MVD assay: inhibition of electrically evoked contractions of the mouse vas deferens (δ antagonist Ke); format: cell-based; details: means of 3-8 determinations ± SEM; for Ke in the MVD assay, antagonist potency against DPDPE: δ agonist DPDPE; for Ke in the MVD assay, antagonist potency against [D-Ala2]deltorphin I: δ agonist [D-Ala2]deltorphin I; for Ke in the MVD assay, antagonist potency against [Leu5]enkephalin: δ agonist [Leu5]enkephalin
T1 construct: Bioassays Using Isolated Organ Preparations; from tissue; host or cells: isolated mouse vas deferens
Experimental: as §1, §2

μ opioid receptor = molecular target: T2, μ opioid receptor (Rattus norvegicus, UniProt P33535); assay: μ opioid receptor binding, displacement of [3H]DAMGO from rat brain membranes; details: [3H]DAMGO 0.7 nM, Cheng-Prusoff, means of three determinations ± SEM
T2 construct: from tissue; host or cells: rat brain membranes (cerebellum removed), Sprague-Dawley
Excerpt: (§3) In the case of κ-ligands guinea pig brain homogenates were used, since the relative proportion of κ-binding sites is higher in guinea pig brain than in rat brain. The experimental procedure being used in our laboratory represents a modified version of the binding assay described by Paternak et al. (Mol. Pharmacol. 11 340-351, (1975)). Male Sprague-Dawley rats (300-350 g) from the Canadian Breeding Laboratories were decapitated and after removal of the cerebellum the brains were homogenized in 30 volumes of ice-cold standard buffer (50 mM Tris-HCl, pH 7.7). After centrifugation at 30,000×g for 30 min at 4° C. the membranes were reconstituted in the original volume of standard buffer and incubated for 30 min at 37° C. (to release bound endogenous ligands). […] The incubation was terminated by filtration through Whatman GF/B filters under vacuum at 4° C. Following two washings with 5 ml portions of ice-cold standard buffer the filters were transferred to scintillation vials and treated with 1 ml Protosol (New England Nuclear) for 30 min prior to the addition of 0.5 ml acetic acid and 10 ml Aquasol (New England Nuclear). After shaking for 30 min the vials were counted at an efficiency of 40-45%. All experiments were performed in duplicates and repeated at least three times. Specific binding of each of the three radioglands was defmed by performing incubations in the presence of cold DAMGO, DSLET and U69,563, respectively, at a concentration of 1 micromolar. Values of half-maximal inhibition (IC50) of specific binding were obtained graphically from semilogarithmic plots. From the measured IC50-values, binding inhibition constants (Ki) were then calculated based on Cheng and Prussoff's equation (Biochem. Pharmacol. 22, 3099-3102 (1973)). Ratios of the Ki -values in the μ-, δ- and κ-representative bindning assays are a measure of the receptor selectivity of the compound under investigation (e.g. Ki^δ/ Ki^μ indicated the selectivity for μ-receptors versus δ-receptors).

δ opioid receptor = molecular target: T3, δ opioid receptor (Rattus norvegicus, UniProt P33533); assay: δ opioid receptor binding, displacement of δ-selective radioligand from rat brain membranes; details: for Ki^δ/Ki^μ (selectivity for μ versus δ receptors): ratio of binding constants; for Ki: δ-selective radioligand 1.0 nM, Cheng-Prusoff, means of three determinations ± SEM
T3 construct: from tissue; host or cells: rat brain membranes (cerebellum removed), Sprague-Dawley
Excerpt: as §3

Chain of μ opioid receptors (P97266 whole entry, looked up): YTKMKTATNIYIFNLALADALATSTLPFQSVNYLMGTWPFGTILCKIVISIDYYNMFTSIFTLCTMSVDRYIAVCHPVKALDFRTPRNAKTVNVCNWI
T2 sequence (P33535 whole entry): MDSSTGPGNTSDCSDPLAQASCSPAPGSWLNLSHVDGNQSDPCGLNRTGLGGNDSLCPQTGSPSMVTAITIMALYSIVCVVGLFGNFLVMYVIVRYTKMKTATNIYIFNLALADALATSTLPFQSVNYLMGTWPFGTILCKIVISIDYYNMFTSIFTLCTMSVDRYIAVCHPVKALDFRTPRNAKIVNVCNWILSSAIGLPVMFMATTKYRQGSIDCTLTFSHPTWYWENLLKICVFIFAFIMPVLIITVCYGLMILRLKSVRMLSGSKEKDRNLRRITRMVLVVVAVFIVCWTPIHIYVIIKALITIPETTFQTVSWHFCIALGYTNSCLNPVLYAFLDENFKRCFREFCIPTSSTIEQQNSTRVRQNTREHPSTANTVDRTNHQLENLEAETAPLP
T3 sequence (P33533 whole entry): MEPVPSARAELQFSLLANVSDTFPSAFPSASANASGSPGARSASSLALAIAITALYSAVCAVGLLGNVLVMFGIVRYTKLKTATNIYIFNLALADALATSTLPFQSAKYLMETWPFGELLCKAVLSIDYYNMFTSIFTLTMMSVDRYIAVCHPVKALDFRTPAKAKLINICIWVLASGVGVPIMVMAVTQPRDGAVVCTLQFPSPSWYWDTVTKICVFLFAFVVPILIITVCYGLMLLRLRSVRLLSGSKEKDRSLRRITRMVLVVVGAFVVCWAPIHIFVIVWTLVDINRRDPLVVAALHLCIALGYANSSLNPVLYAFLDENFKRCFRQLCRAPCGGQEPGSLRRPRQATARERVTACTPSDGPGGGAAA
T1 sequence (P32300 whole entry): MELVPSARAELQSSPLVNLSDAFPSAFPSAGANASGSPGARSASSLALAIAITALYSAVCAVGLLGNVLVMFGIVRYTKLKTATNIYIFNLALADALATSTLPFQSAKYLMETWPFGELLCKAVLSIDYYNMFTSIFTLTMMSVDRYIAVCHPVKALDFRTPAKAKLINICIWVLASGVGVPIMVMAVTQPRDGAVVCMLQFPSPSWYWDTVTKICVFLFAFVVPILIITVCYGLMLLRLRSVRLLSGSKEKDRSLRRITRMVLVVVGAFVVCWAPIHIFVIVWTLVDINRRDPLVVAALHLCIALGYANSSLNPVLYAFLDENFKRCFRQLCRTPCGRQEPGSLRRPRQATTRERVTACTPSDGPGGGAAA

SMILES	IC50 (μ opioid receptors)	Ke in the MVD assay, antagonist potency against DPDPE (δ opioid receptors)	Ke in the MVD assay, antagonist potency against [D-Ala2]deltorphin I (δ opioid receptors)	Ke in the MVD assay, antagonist potency against [Leu5]enkephalin (δ opioid receptors)	Ki (μ opioid receptor)	Ki^δ/Ki^μ (selectivity for μ versus δ receptors) (δ opioid receptor)	Ki (δ opioid receptor)
CN[C@@H](Cc1ccc(O)cc1)C(=O)N[C@@H]1CCCNC(=O)CNC(=O)[C@H]2CCCN2C(=O)[C@H](Cc2ccc3ccccc3c2)NC1=O [Example 1, Tyr(NMe)-c[-D-Orn-2-Nal-D-Pro-Gly-]] (HELM PEPTIDE1{[meY].[O=C([C@@H](CCCN[*:3])N[*:1])[*:2]].[O=C([C@H](Cc1ccc2ccccc2c1)N[*:1])[*:2]].[dP].G}$PEPTIDE1,PEPTIDE1,2:R3-5:R2$$$V2.0)	0.0925 µM	45.9 ± 2.8	38.8 ± 5.9	30.8 ± 1.5	0.0017 ± 0.00015 µM	0.765	0.0013 ± 0.00019 µM
CN1CC(=O)NCCC[C@@H](NC(=O)[C@@H](N)Cc2ccc(O)cc2)C(=O)N[C@@H](Cc2ccc3ccccc3c2)C(=O)N2CCC[C@@H]2C1=O [Example 2, H-Tyr-c[-D-Orn-2-Nal-D-Pro-Sar-]] (HELM PEPTIDE1{Y.[O=C([C@@H](CCCN[*:3])N[*:1])[*:2]].[O=C([C@H](Cc1ccc2ccccc2c1)N[*:1])[*:2]].[dP].[Sar]}$PEPTIDE1,PEPTIDE1,2:R3-5:R2$$$V2.0)	0.159 µM	11.2 ± 2.1	7.81 ± 1.90	17.0 ± 3.60	0.0148 ± 0.0007 µM	0.163	0.00241 ± 0.00034 µM
Cc1cc(O)cc(C)c1C[C@H](N)C(=O)N[C@@H]1CCCNC(=O)CNC(=O)[C@H]2CCCN2C(=O)[C@H](Cc2ccc3ccccc3c2)NC1=O [Example 3, H-Dmt-c[-D-Orn-2-Nal-D-Pro-Gly-]] (H-[Dmt][dOrn][2Nal][dP]G; lactam 2-C)	0.00788 µM	2.13 ± 0.51	3.37 ± 0.59	3.74 ± 1.00	0.00046 ± 2.2e-05 µM	0.993	0.000457 ± 2.2e-05 µM
Cc1cc(O)cc(C)c1C[C@H](N)C(=O)N[C@@H]1CCCNC(=O)CN(C)C(=O)[C@H]2CCCN2C(=O)[C@H](Cc2ccc3ccccc3c2)NC1=O [Example 4, H-Dmt-c[-D-Orn-2-Nal-D-Pro-Sar-]] (H-[Dmt][dOrn][2Nal][dP][Sar]; lactam 2-C)	0.0145 µM	16.4					
C[C@H]1NC(=O)[C@H]2CCCN2C(=O)[C@H](Cc2ccc3ccccc3c2)NC(=O)[C@H](NC(=O)[C@@H](N)Cc2ccc(O)cc2)CCCNC1=O [Example 5, H-Tyr-c[-D-Orn-2-Nal-D-Pro-D-Ala-]] (HELM PEPTIDE1{Y.[O=C([C@@H](CCCN[*:3])N[*:1])[*:2]].[O=C([C@H](Cc1ccc2ccccc2c1)N[*:1])[*:2]].[dP].[dA]}$PEPTIDE1,PEPTIDE1,2:R3-5:R2$$$V2.0)	0.6 µM	5.35 ± 0.42	5.99 ± 1.30		0.072 ± 0.022 µM	0.0105	0.000755 ± 0.000125 µM
CC1(C)NC(=O)[C@H]2CCCN2C(=O)[C@H](Cc2ccc3ccccc3c2)NC(=O)[C@H](NC(=O)[C@@H](N)Cc2ccc(O)cc2)CCCNC1=O [Example 6, H-Tyr-c[-D-Orn-2-Nal-D-Pro-Aib-]] (HELM PEPTIDE1{Y.[O=C([C@@H](CCCN[*:3])N[*:1])[*:2]].[O=C([C@H](Cc1ccc2ccccc2c1)N[*:1])[*:2]].[dP].[Aib]}$PEPTIDE1,PEPTIDE1,2:R3-5:R2$$$V2.0)	0.451 µM	31.6 ± 2.9	55.8 ± 3.8				
CN1C(=O)[C@H]2CCCN2C(=O)[C@H](Cc2ccc3ccccc3c2)NC(=O)[C@H](NC(=O)[C@@H](N)Cc2ccc(O)cc2)CCCNC(=O)C1(C)C [Example 7, H-Tyr-c[-D-Orn-2-Nal-D-Pro-MeAib-]] (H-Y[dOrn][2Nal][dP][NMeAib]; lactam 2-C)	0.228 µM	370 ± 48	480 ± 84		0.0292 ± 0.0052 µM	0.366	0.0107 ± 0.0055 µM
CC(C)[C@H]1NC(=O)[C@H]2CCCN2C(=O)[C@H](Cc2ccc3ccccc3c2)NC(=O)[C@H](NC(=O)[C@@H](N)Cc2ccc(O)cc2)CCCNC1=O [Example 8, H-Tyr-c[-D-Orn-2-Nal-D-Pro-D-Val-]] (HELM PEPTIDE1{Y.[O=C([C@@H](CCCN[*:3])N[*:1])[*:2]].[O=C([C@H](Cc1ccc2ccccc2c1)N[*:1])[*:2]].[dP].[dV]}$PEPTIDE1,PEPTIDE1,2:R3-5:R2$$$V2.0)	0.536 µM	20.9 ± 1.5	26.1 ± 2.8				
CC[C@@H](C)[C@H]1NC(=O)[C@H]2CCCN2C(=O)[C@H](Cc2ccc3ccccc3c2)NC(=O)[C@H](NC(=O)[C@@H](N)Cc2ccc(O)cc2)CCCNC1=O [Example 9, H-Tyr-c[-D-Orn-2-Nal-D-Pro-D-Ile-]] (HELM PEPTIDE1{Y.[O=C([C@@H](CCCN[*:3])N[*:1])[*:2]].[O=C([C@H](Cc1ccc2ccccc2c1)N[*:1])[*:2]].[dP].[dI]}$PEPTIDE1,PEPTIDE1,2:R3-5:R2$$$V2.0)	0.815 µM	4.88 ± 0.94	7.63 ± 1.48				
Cc1cc(O)cc(C)c1C[C@H](N)C(=O)N[C@@H]1CCCNC(=O)[C@@H](C)NC(=O)[C@H]2CCCN2C(=O)[C@H](Cc2ccc3ccccc3c2)NC1=O [Example 10, H-Dmt-c[-D-Orn-2-Nal-D-Pro-D-Ala-]] (H-[Dmt][dOrn][2Nal][dP][dA]; lactam 2-C)	0.0104 µM	0.577 ± 0.022	0.319 ± 0.091				
N[C@@H](Cc1ccc(O)cc1)C(=O)N[C@@H]1CCCCNC(=O)CNC(=O)[C@H]2CCCN2C(=O)[C@H](Cc2ccc3ccccc3c2)NC1=O [H-Tyr-c[-D-Lys-2-Nal-D-Pro-Gly-], reference compound] (HELM PEPTIDE1{Y.[dK].[O=C([C@H](Cc1ccc2ccccc2c1)N[*:1])[*:2]].[dP].G}$PEPTIDE1,PEPTIDE1,2:R3-5:R2$$$V2.0)	0.609 µM	305 ± 52	305 ± 52	603 ± 174	0.0171 ± 0.0026 µM	3.66	0.0626 ± 0.0132 µM
N[C@@H](Cc1ccc(O)cc1)C(=O)N[C@@H]1CCCNC(=O)CNC(=O)[C@H]2CCCN2C(=O)[C@H](Cc2ccc3ccccc3c2)NC1=O [H-Tyr-c[-D-Orn-2-Nal-D-Pro-Gly-], reference compound] (HELM PEPTIDE1{Y.[O=C([C@@H](CCCN[*:3])N[*:1])[*:2]].[O=C([C@H](Cc1ccc2ccccc2c1)N[*:1])[*:2]].[dP].G}$PEPTIDE1,PEPTIDE1,2:R3-5:R2$$$V2.0)	0.384 µM	233 ± 28	202 ± 24	268 ± 22	0.00589 ± 0.0016 µM	2.92	0.0172 ± 0.0049 µM
